The source of these data is US20100222322A1, “Non-Nucleoside Reverse Transcriptase Inhibitors” (MERCK & CO., INC., priority 2005, published 2010).

Read-outs that look alike come from different tables or passages of the source.

What is called IC95 is the concentration at which the effect reaches the 95% level. By IC50 is commonly meant the concentration that inhibits the measured activity by half.

Experiment [1] has as its system HIV replication in T-lymphoid cells. Briefly: Spread assay: inhibition of acute HIV infection of T-lymphoid cells. The following applies: read-out: IC95, spread assay (inhibition of HIV replication). The class given is cell-based. On the procedure:
An assay for the inhibition of acute HIV infection of T-lymphoid cells (alternatively referred to herein as the “spread assay”) was conducted in accordance with Vacca, J. P. et al., Proc. Natl. Acad. Sci. USA 1994, 91: 4096. […] The compounds of Examples 26, 29, 30, 33-35 and 62 were tested in the spread assay up to 10 micromolar, but specific IC95 values were not obtained; i.e., the IC95 values were greater than 10 micromolar. The compounds of Examples 47 and 61 were not tested.

For experiment [2], the target named is T1, mutant HIV reverse transcriptase with the Y181C mutation (Human immunodeficiency virus type 1 group M subtype B, UniProt P04585, Y768C).
T1 construct: mutations that occur in the reverse transcriptase segment of the pol gene; made in house
The experiment can be described thus: Analogous RT inhibition assay, Y181C mutant. The class given is biochemical. Here is the method: (§1) 100 μL reaction mixtures were initiated with a combination of primer-template substrate (10 nM final concentration) and dNTPs (0.6 μM dNTPs, 0.75 μM [^3H]-dGTP). The heterodimeric nucleic acid substrate was generated by annealing the DNA primer pD500 (described in Shaw-Reid et al., J. Biol. Chem., 278: 2777-2780; obtained from Integrated DNA Technologies) to t500, a 500 nucleotide RNA template created by in vitro transcription (see Shaw-Reid et al., J. Biol. Chem., 278: 2777-2780). After 1 hour incubation at 37° C., reactions were quenched by 10 μL streptavidin scintillation proximity assay beads (10 mg/mL, from Amersham Biosciences) in 0.5 M EDTA, pH 8. Microtiter plates were incubated an additional 10 minutes at 37° C. prior to quantification via Topcount (Packard).
(§2) Analogous assays were conducted substituting mutant HIV strains to determine the […] inhibition of compounds of the present invention against mutant HIV reverse transcriptase. In one strain the reverse transcriptase has the Y181C mutation and in the other strain the reverse transcriptase has the K103N mutation. The mutations were generated with the […] site-directed mutagenesis kit (Stratagene). […] The compounds set forth in the other Examples were not tested in the Y181C assay. […] The compounds set forth in the other Examples were not tested in the K103N assay.

The target of experiment [3] is T2, mutant HIV reverse transcriptase with the K103N mutation (Human immunodeficiency virus type 1 group M subtype B, UniProt P04585, K690N).
T2 construct: mutations that occur in the reverse transcriptase segment of the pol gene; made in house
Briefly: Analogous RT inhibition assay, K103N mutant. In kind it is biochemical. Here is the method: as §1, §2

The mark [4] stands for this setting: Human immunodeficiency virus 1, acute HIV infection of T-lymphoid cells, tested up to 10 micromolar.
Where [5] appears, read: RT with Y181C mutation, tested up to 20 micromolar, read-out: IC50, Y181C mutant assay.
Where [6] appears, read: RT with K103N mutation, tested up to 20 micromolar, read-out: IC50, K103N mutant assay.

As for `NC(=O)c1[nH]c2ccc(Cl)cc2c1S(=O)(=O)N1CCC(F)(F)C1` [Example 39, 5-chloro-3-[(3,3-difluoropyrrolidin-1-yl)sulfonyl]-1H-indole-2-carboxamide], in experiment [1] (setting [4]), the 95% effect concentration (IC95) is less than 1 µM. For the same molecule, the IC50 in experiment [2] (setting [5]) is less than 1 µM.

`NC(=O)c1[nH]c2ccc(Cl)cc2c1S(=O)(=O)NC1CCCCC1` [Example 2, 5-chloro-3-[(cyclohexylamino)sulfonyl]-1H-indole-2-carboxamide]: in experiment [1] (setting [4]), the IC95 was less than 1 µM. For the same molecule, the results for the IC50 in experiment [3] and in experiment [2] were more than 20 µM and less than 1 µM, respectively.

Turning to `NC(=O)c1[nH]c2ccc(Br)cc2c1S(=O)(=O)NC1CC1` [Example 11, 5-bromo-3-[(cyclopropylamino)sulfonyl]-1H-indole-2-carboxamide], the 95% effect concentration (IC95) in experiment [1] (setting [4]) was less than 1 µM. Moreover, the 50% inhibitory concentration (IC50) was more than 20 µM in experiment [3] and 1 to 20 µM in experiment [2].

`NC(=O)c1[nH]c2ccc(Br)cc2c1S(=O)(=O)N1CCCC(F)(F)C1` [Example 21, 5-bromo-3-[(3,3-difluoropiperidin-1-yl)sulfonyl]-1H-indole-2-carboxamide]: in experiment [1] (setting [4]), the IC95 was less than 1 µM. In addition, the half-inhibitory concentration (IC50) in experiment [3] is more than 20 µM; in experiment [2] it was less than 1 µM.

Consider `NC(=O)c1[nH]c2ccc(Br)cc2c1S(=O)(=O)NCC1CCCO1` (stereo not shown) [Example 18, 5-bromo-3-{[(tetrahydrofuran-2-ylmethyl)amino]sulfonyl}-1H-indole-2-carboxamide], for which the IC95 in experiment [1] (setting [4]) is less than 1 µM. Also, the IC50 was more than 20 µM in experiment [3] (setting [6]) and less than 1 µM in experiment [2] (setting [5]).

`NC(=O)c1[nH]c2ccc(Cl)cc2c1S(=O)(=O)N1CC=CC1` [Example 37, 5-chloro-3-(2,5-dihydro-1H-pyrrol-1-ylsulfonyl)-1H-indole-2-carboxamide]: the IC95 in experiment [1] (setting [4]) was less than 1 µM. Also, the IC50 is 1 to 20 µM in experiment [3] and less than 1 µM in experiment [2] (setting [5]).

Turning to `O=C(NCc1cncs1)c1[nH]c2ccc(Br)cc2c1S(=O)(=O)N1CCCC1` [Example 65, 5-bromo-3-(pyrrolidin-1-ylsulfonyl)-N-(1,3-thiazol-5-ylmethyl)-1H-indole-2-carboxamide], in experiment [1] (setting [4]), the IC95 was less than 1 µM. In addition, the IC50 in experiment [3] and in experiment [2] was less than 1 µM each time.

For `COC[C@@H]1CCCN1S(=O)(=O)c1c(C(N)=O)[nH]c2ccc(Br)cc12` [Example 15, 5-bromo-3-{[(2S)-2-(methoxymethyl)pyrrolidin-1-yl]sulfonyl}-1H-indole-2-carboxamide], the 95% effect concentration (IC95) in experiment [1] (setting [4]) is less than 1 µM. For the same molecule, the figures for the half-maximal inhibitory concentration (IC50) in experiment [3] (setting [6]) and in experiment [2] (setting [5]) were 1 to 20 µM and less than 1 µM, respectively.

`O=C(NCc1ccccc1O)c1[nH]c2ccc(Br)cc2c1S(=O)(=O)N1CCCC1` [Example 51, 5-bromo-N-(2-hydroxybenzyl)-3-(pyrrolidin-1-ylsulfonyl)-1H-indole-2-carboxamide]: the IC95 in experiment [1] (setting [4]) is less than 1 µM. Further, the IC50 in experiment [3] and in experiment [2] was less than 1 µM in each case.

On to `O=C(NCc1nccs1)c1[nH]c2ccc(Br)cc2c1S(=O)(=O)N1CCCC1` [Example 47, 5-Bromo-3-(pyrrolidin-1-ylsulfonyl)-N-(1,3-thiazol-2-ylmethyl)-1H-indole-2-carboxamide], for which the concentration for half-maximal inhibition (IC50) in experiment [3] (setting [6]) and in experiment [2] (setting [5]) was less than 1 µM each time.

In the case of `NC(=O)c1[nH]c2ccc(Br)cc2c1S(=O)(=O)N1CCCCC1` [Example 13, 5-bromo-3-(piperidin-1-ylsulfonyl)-1H-indole-2-carboxamide], the IC95 in experiment [1] (setting [4]) is less than 1 µM. For the same molecule, the concentration for half-maximal inhibition (IC50) in experiment [3] (setting [6]) is 1 to 20 µM; in experiment [2] (setting [5]), less than 1 µM.

As for `NC(=O)c1[nH]c2ccc(Br)cc2c1S(=O)(=O)NCCS(N)(=O)=O` [Example 9, 3-({[2-(aminosulfonyl)ethyl]amino}sulfonyl)-5-bromo-1H-indole-2-carboxamide], in experiment [1] (setting [4]), the concentration for an effect of 95% (IC95) is less than 1 µM. In addition, the half-maximal inhibitory concentration (IC50) in experiment [3] and in experiment [2] was 1 to 20 µM in each case.

Consider `NC(=O)c1[nH]c2ccc(Br)cc2c1S(=O)(=O)NC1CCCCC1` [Example 16, 5-bromo-3-[(cyclohexylamino)sulfonyl]-1H-indole-2-carboxamide], for which the IC95 in experiment [1] (setting [4]) is less than 1 µM. Further, the IC50 was more than 20 µM in experiment [3] (setting [6]) and less than 1 µM in experiment [2] (setting [5]).

For `NC(=O)c1[nH]c2ccc(Br)cc2c1S(=O)(=O)N1CCC[C@H]1C(F)(F)F` [Example 19, 5-bromo-3-{[(2S)-2-(trifluoromethyl)pyrrolidin-1-yl]sulfonyl}-1H-indole-2-carboxamide], the concentration for an effect of 95% (IC95) in experiment [1] (setting [4]) is less than 1 µM. The IC50 in experiment [3] (setting [6]) is more than 20 µM; in experiment [2], 1 to 20 µM.

Turning to `NC(=O)c1[nH]c2ccc(Cl)cc2c1S(=O)(=O)N1CCCCC1` [Example 5, 5-chloro-3-(piperidin-1-ylsulfonyl)-1H-indole-2-carboxamide], the 95% effect concentration (IC95) in experiment [1] (setting [4]) is less than 1 µM. The IC50 in experiment [3] is more than 20 µM; in experiment [2] (setting [5]), less than 1 µM.

In the case of `NC(=O)c1[nH]c2ccc(Br)cc2c1S(=O)(=O)NC1CCCC1` [Example 17, 5-bromo-3-[(cyclopentylamino)sulfonyl]-1H-indole-2-carboxamide], in experiment [1] (setting [4]), the IC95 was less than 1 µM. Further, the values for the IC50 in experiment [3] (setting [6]) and in experiment [2] (setting [5]) were more than 20 µM and less than 1 µM, respectively.

Turning to `O=C(NCCO)c1[nH]c2ccc(Br)cc2c1S(=O)(=O)N1CCCCC1` [Example 31, 5-bromo-N-(2-hydroxyethyl)-3-(piperidin-1-ylsulfonyl)-1H-indole-2-carboxamide], the IC95 in experiment [1] (Human immunodeficiency virus 1, T-lymphoid) was less than 1 µM. Besides, the figures for the IC50 in experiment [3] and in experiment [2] were more than 20 µM and less than 1 µM, respectively.

On to `O=C(NCc1c(F)cccc1Cl)c1[nH]c2ccc(Br)cc2c1S(=O)(=O)N1CCCC1` [Example 48, 5-bromo-N-(2-chloro-6-fluorobenzyl)-3-(pyrrolidin-1-ylsulfonyl)-1H-indole-2-carboxamide], for which the IC95 in experiment [1] (setting [4]) is less than 1 µM. Besides, the half-inhibitory concentration (IC50) in experiment [3] and in experiment [2] was less than 1 µM throughout.

Take `O=C(NCc1ccn[nH]1)c1[nH]c2ccc(Br)cc2c1S(=O)(=O)N1CCCC1` [Example 59, 5-bromo-N-(1H-pyrazol-5-ylmethyl)-3-(pyrrolidin-1-ylsulfonyl)-1H-indole-2-carboxamide]: the IC95 in experiment [1] (setting [4]) was less than 1 µM. For the same molecule, the IC50 in experiment [3] and in experiment [2] was less than 1 µM each time.

For `O=C(NCc1ccncc1)c1[nH]c2ccc(Br)cc2c1S(=O)(=O)N1CCCC1` [Example 64, 5-bromo-N-(pyridin-4-ylmethyl)-3-(pyrrolidin-1-ylsulfonyl)-1H-indole-2-carboxamide], the IC95 in experiment [1] (setting [4]) is less than 1 µM. Further, the IC50 in experiment [3] and in experiment [2] was less than 1 µM throughout.

Consider `NC(=O)c1[nH]c2ccc(Cl)cc2c1S(=O)(=O)NC1CCCC1` [Example 4, 5-chloro-3-[(cyclopentylamino)sulfonyl]-1H-indole-2-carboxamide], for which the IC95 in experiment [1] (setting [4]) is less than 1 µM. The IC50 was more than 20 µM in experiment [3] and less than 1 µM in experiment [2] (setting [5]).

On to `NC(=O)c1[nH]c2ccc(Cl)cc2c1S(=O)(=O)N1CCC(F)C1` (stereo not shown) [Example 38, 5-chloro-3-[(3-fluoropyrrolidin-1-yl)sulfonyl]-1H-indole-2-carboxamide], for which the IC95 in experiment [1] (setting [4]) was less than 1 µM. Besides, the IC50 in experiment [3] was 1 to 20 µM; in experiment [2] (setting [5]), less than 1 µM.

Regarding `O=C(NCc1ccccc1OC(F)F)c1[nH]c2ccc(Br)cc2c1S(=O)(=O)N1CCCC1` [Example 53, 5-bromo-N-[2-(difluoromethoxy)benzyl]-3-(pyrrolidin-1-ylsulfonyl)-1H-indole-2-carboxamide], the IC95 in experiment [1] (setting [4]) is less than 1 µM. Also, the 50% inhibitory concentration (IC50) in experiment [3] and in experiment [2] was less than 1 µM in each case.

Take `NC(=O)c1[nH]c2ccc(Br)cc2c1S(=O)(=O)N1CCCC1` [Example 1, 5-Bromo-3-(pyrrolidin-1-ylsulfonyl)-1H-indole-2-carboxamide]: the concentration for an effect of 95% (IC95) in experiment [1] (setting [4]) was less than 1 µM. Besides, the half-maximal inhibitory concentration (IC50) in experiment [3] (setting [6]) is 1 to 20 µM; in experiment [2] (setting [5]), less than 1 µM.

As for `NC(=O)c1[nH]c2ccc(Cl)cc2c1S(=O)(=O)N1CCCC1` [Example 6, 5-chloro-3-(pyrrolidin-1-ylsulfonyl)-1H-indole-2-carboxamide], the IC95 in experiment [1] (setting [4]) is less than 1 µM. The IC50 in experiment [3] was 1 to 20 µM; in experiment [2] (setting [5]), less than 1 µM.

As to `CN(C1CC1)S(=O)(=O)c1c(C(N)=O)[nH]c2ccc(Br)cc12` [Example 8, 5-bromo-3-{[cyclopropyl(methyl)amino]sulfonyl}-1H-indole-2-carboxamide], the IC95 in experiment [1] (setting [4]) is less than 1 µM. Further, the IC50 in experiment [3] is more than 20 µM; in experiment [2], 1 to 20 µM.
